According to US20260166045A1, “COMBINATION THERAPY COMPRISING GSPT1-DIRECTED MOLECULAR GLUE DEGRADERS AND PI3K/AKT/mTOR PATHWAY INHIBITORS” (Monte Rosa Therapeutics, Inc., priority 2022, published 2026):

Tests used:
Experiment in all cases: CellTiter-Glo 2.0 cell viability, 7x7 combination dose response matrix, synergy scoring
Format in all cases: cell-based
CAL51 mutant cell line = tested on: CAL51 mutant cell line
EBC-1 cell line = tested on: EBC-1 cell line
ABC-1 cell line = tested on: ABC-1 cell line
NCI-H1155 cell line = tested on: NCI-H1155 cell line
[1] = combined with Alpelisib 41-10000 nM, first compound 4.1-1000 nM
[2] = combined with Capivasertib 41-10000 nM, first compound 4.1-1000 nM
[3] = combined with Everolimus 4.1-1000 nM, first compound 4.1-1000 nM
[4] = combined with GNE-477 41-10000 nM, first compound 4.1-1000 nM
[5] = combined with KU-0063794 41-10000 nM, first compound 4.1-1000 nM
[6] = combined with M2698 41-10000 nM, first compound 4.1-1000 nM
[7] = EBC-1, combined with GNE-477 21-10000 nM, first compound 1.05-500 nM
[8] = EBC-1, combined with KU-0063794 21-10000 nM, first compound 1.05-500 nM
[9] = EBC-1, combined with M2698 21-10000 nM, first compound 1.05-500 nM
[10] = ABC-1, combined with GNE-477 21-10000 nM, first compound 1.05-500 nM
[11] = ABC-1, combined with KU-0063794 21-10000 nM, first compound 1.05-500 nM
[12] = ABC-1, combined with M2698 21-10000 nM, first compound 1.05-500 nM
[13] = combined with GNE-477 21-10000 nM, first compound 1.05-500 nM
[14] = combined with KU-0063794 21-10000 nM, first compound 1.05-500 nM
[15] = combined with M2698 21-10000 nM, first compound 1.05-500 nM
[16] = combined with Alpelisib 41-10000 nM, first compound 0.41-100 nM
[17] = combined with Capivasertib 41-10000 nM, first compound 0.41-100 nM
[18] = combined with Everolimus 4.1-1000 nM, first compound 0.41-100 nM
[19] = combined with GNE-477 41-10000 nM, first compound 0.41-100 nM
[20] = combined with KU-0063794 41-10000 nM, first compound 0.41-100 nM
[21] = combined with M2698 41-10000 nM, first compound 0.41-100 nM
[22] = EBC-1, combined with Alpelisib 21-10000 nM, first compound 0.21-100 nM
[23] = EBC-1, combined with Capivasertib 21-10000 nM, first compound 0.21-100 nM
[24] = EBC-1, combined with Everolimus 2.1-1000 nM, first compound 0.21-100 nM
[25] = EBC-1, combined with GNE-477 21-10000 nM, first compound 0.21-100 nM
[26] = EBC-1, combined with KU-0063794 21-10000 nM, first compound 0.21-100 nM
[27] = EBC-1, combined with M2698 21-10000 nM, first compound 0.21-100 nM
[28] = ABC-1, combined with Alpelisib 21-10000 nM, first compound 0.21-100 nM
[29] = ABC-1, combined with Capivasertib 21-10000 nM, first compound 0.21-100 nM
[30] = ABC-1, combined with Everolimus 2.1-1000 nM, first compound 0.21-100 nM
[31] = ABC-1, combined with GNE-477 21-10000 nM, first compound 0.21-100 nM
[32] = ABC-1, combined with KU-0063794 21-10000 nM, first compound 0.21-100 nM
[33] = ABC-1, combined with M2698 21-10000 nM, first compound 0.21-100 nM
[34] = combined with Alpelisib 21-10000 nM, first compound 0.21-100 nM
[35] = combined with Capivasertib 21-10000 nM, first compound 0.21-100 nM
[36] = combined with Everolimus 2.1-1000 nM, first compound 0.21-100 nM
[37] = combined with GNE-477 21-10000 nM, first compound 0.21-100 nM
[38] = combined with KU-0063794 21-10000 nM, first compound 0.21-100 nM
[39] = combined with M2698 21-10000 nM, first compound 0.21-100 nM

Question: Which “Mean Bliss synergy score” value (CAL51 mutant cell line; [1]) does the source give for `O=C1CCC(N2Cc3ccc(COC(=O)Nc4cc(OC(F)(F)F)ccc4F)cc3C2=O)C(=O)N1` (stereo not drawn) [Compound 1-1, [2-(2,6-dioxopiperidin-3-yl)-3-oxo-2,3-dihydro-1H-isoindol-5-yl]methyl N-[2-fluoro-5-(trifluoromethoxy)phenyl]carbamate] here?
Answer: Its value is 4.76.

Question: And the “Mean Loewe synergy score” value (CAL51 mutant cell line; [1])?
Answer: The value was 0.35.

Question: And the “Mean Bliss synergy score” value (CAL51 mutant cell line; [2])?
Answer: Its value is −0.44.

Question: What about the “Mean Loewe synergy score” value (CAL51 mutant cell line; [2]) of the same compound?
Answer: Its value is −3.66.

Question: What about the “Mean Bliss synergy score” value (CAL51 mutant cell line; [3]) of the same compound?
Answer: Its value is −3.14.

Question: And the “Mean Loewe synergy score” value (CAL51 mutant cell line; [3])?
Answer: The value was 4.91.

Question: What about the “Mean Bliss synergy score” value (CAL51 mutant cell line; [4]) of the same compound?
Answer: Its value is 2.54.

Question: And the “Mean Loewe synergy score” value (CAL51 mutant cell line; [4])?
Answer: The value was −2.04.

Question: What about the “Mean Bliss synergy score” value (CAL51 mutant cell line; [5]) of the same compound?
Answer: Its value is 2.83.

Question: What about the “Mean Loewe synergy score” value (CAL51 mutant cell line; [5]) of the same compound?
Answer: The value was −1.46.

Question: What about the “Mean Bliss synergy score” value (CAL51 mutant cell line; [6]) of the same compound?
Answer: Its value is −2.37.

Question: And the “Mean Loewe synergy score” value (CAL51 mutant cell line; [6])?
Answer: Its value is −2.73.

Question: And the “Mean Bliss synergy score” value (EBC-1 cell line; [7])?
Answer: Its value is 12.03.

Question: And the “Mean Loewe synergy score” value (EBC-1 cell line; [7])?
Answer: Its value is 1.96.

Question: And the “Mean Bliss synergy score” value (EBC-1 cell line; [8])?
Answer: The value was 13.27.

Question: What about the “Mean Loewe synergy score” value (EBC-1 cell line; [8]) of the same compound?
Answer: The value was −6.72.

Question: And the “Mean Bliss synergy score” value (EBC-1 cell line; [9])?
Answer: The value was 10.48.

Question: What about the “Mean Loewe synergy score” value (EBC-1 cell line; [9]) of the same compound?
Answer: The value was 8.11.

Question: What about the “Mean Bliss synergy score” value (EBC-1 cell line; combined with GNE-477 (21 nM to 10 uM), EBC-1 cell line, mean across dose response matrix, 72 hrs) of the same compound?
Answer: Its value is 12.03.

Question: What about the “Mean Bliss synergy score” value (ABC-1 cell line; [10]) of the same compound?
Answer: Its value is 17.46.

Question: What about the “Mean Loewe synergy score” value (ABC-1 cell line; [10]) of the same compound?
Answer: The value was 13.06.

Question: What about the “Mean Bliss synergy score” value (ABC-1 cell line; [11]) of the same compound?
Answer: Its value is 23.16.

Question: And the “Mean Loewe synergy score” value (ABC-1 cell line; [11])?
Answer: Its value is 12.88.

Question: What about the “Mean Bliss synergy score” value (ABC-1 cell line; [12]) of the same compound?
Answer: The value was 17.47.

Question: And the “Mean Loewe synergy score” value (ABC-1 cell line; [12])?
Answer: Its value is 14.22.

Question: What about the “Mean Bliss synergy score” value (NCI-H1155 cell line; [13]) of the same compound?
Answer: Its value is 1.97.

Question: And the “Mean Loewe synergy score” value (NCI-H1155 cell line; [13])?
Answer: The value was 4.77.

Question: And the “Mean Bliss synergy score” value (NCI-H1155 cell line; [14])?
Answer: Its value is 0.38.

Question: What about the “Mean Loewe synergy score” value (NCI-H1155 cell line; [14]) of the same compound?
Answer: The value was 3.70.

Question: And the “Mean Bliss synergy score” value (NCI-H1155 cell line; [15])?
Answer: Its value is 1.48.

Question: And the “Mean Loewe synergy score” value (NCI-H1155 cell line; [15])?
Answer: Its value is 5.14.

Question: What does the source list for `Cc1ccc(NC(=O)OCc2ccc3c(c2)C(=O)N(C2CCC(=O)NC2=O)C3)cc1Cl` (stereo not drawn) [Compound 1-6, [2-(2,6-dioxopiperidin-3-yl)-3-oxo-2,3-dihydro-1H-isoindol-5-yl]methyl N-(3-chloro-4-methylphenyl)carbamate]?
Answer: Mean Bliss synergy score (CAL51 mutant cell line; [16]): −0.63; Mean Loewe synergy score (CAL51 mutant cell line; [16]): −1.04; Mean Bliss synergy score (CAL51 mutant cell line; [17]): 0.95; Mean Loewe synergy score (CAL51 mutant cell line; [17]): −0.06; Mean Bliss synergy score (CAL51 mutant cell line; [18]): −1.53; Mean Loewe synergy score (CAL51 mutant cell line; [18]): −0.66; Mean Bliss synergy score (CAL51 mutant cell line; [19]): −1.35; Mean Loewe synergy score (CAL51 mutant cell line; [19]): −2.34; Mean Bliss synergy score (CAL51 mutant cell line; [20]): −1.01; Mean Loewe synergy score (CAL51 mutant cell line; [20]): −0.85; Mean Bliss synergy score (CAL51 mutant cell line; [21]): 0.82; Mean Loewe synergy score (CAL51 mutant cell line; [21]): −0.62; Mean Bliss synergy score (EBC-1 cell line; [22]): 17.01; Mean Loewe synergy score (EBC-1 cell line; [22]): 3.84; Mean Bliss synergy score (EBC-1 cell line; [23]): 16.12; Mean Loewe synergy score (EBC-1 cell line; [23]): 6.11; Mean Bliss synergy score (EBC-1 cell line; [24]): 7.12; Mean Loewe synergy score (EBC-1 cell line; [24]): 8.08; Mean Bliss synergy score (EBC-1 cell line; [25]): 10.24; Mean Loewe synergy score (EBC-1 cell line; [25]): 2.07; Mean Bliss synergy score (EBC-1 cell line; [26]): 8.70; Mean Loewe synergy score (EBC-1 cell line; [26]): 4.67; Mean Bliss synergy score (EBC-1 cell line; [27]): 8.18; Mean Loewe synergy score (EBC-1 cell line; [27]): 8.00; Mean Loewe synergy score (EBC-1 cell line; combined with Everolimus (2.1 nM to 1 uM), EBC-1 cell line, mean across dose response matrix, 72 hrs): 8.08; Mean Bliss synergy score (ABC-1 cell line; [28]): 20.25; Mean Loewe synergy score (ABC-1 cell line; [28]): 11.94; Mean Bliss synergy score (ABC-1 cell line; [29]): 33.20; Mean Loewe synergy score (ABC-1 cell line; [29]): 16.0; Mean Bliss synergy score (ABC-1 cell line; [30]): 26.31; Mean Loewe synergy score (ABC-1 cell line; [30]): 19.39; Mean Bliss synergy score (ABC-1 cell line; [31]): 20.34; Mean Loewe synergy score (ABC-1 cell line; [31]): 7.13; Mean Bliss synergy score (ABC-1 cell line; [32]): 19.44; Mean Loewe synergy score (ABC-1 cell line; [32]): 7.24; Mean Bliss synergy score (ABC-1 cell line; [33]): 17.02; Mean Loewe synergy score (ABC-1 cell line; [33]): 8.75; Mean Bliss synergy score (ABC-1 cell line; combined with Everolimus (2.1 nM to 1 uM), ABC-1 cell line, mean across dose response matrix, 72 hrs): 26.31; Mean Bliss synergy score (NCI-H1155 cell line; [34]): 5.23; Mean Loewe synergy score (NCI-H1155 cell line; [34]): 2.10; Mean Bliss synergy score (NCI-H1155 cell line; [35]): 5.58; Mean Loewe synergy score (NCI-H1155 cell line; [35]): 4.36; Mean Bliss synergy score (NCI-H1155 cell line; [36]): −1.66; Mean Loewe synergy score (NCI-H1155 cell line; [36]): 6.77; Mean Bliss synergy score (NCI-H1155 cell line; [37]): 3.25; Mean Loewe synergy score (NCI-H1155 cell line; [37]): 3.14; Mean Bliss synergy score (NCI-H1155 cell line; [38]): 3.66; Mean Loewe synergy score (NCI-H1155 cell line; [38]): 2.43; Mean Bliss synergy score (NCI-H1155 cell line; [39]): 2.04; Mean Loewe synergy score (NCI-H1155 cell line; [39]): 4.27
